We go through eleven compounds from patent US20080193398A1, “Derivatives of Heptaazaphenalene, Methods for Obtaining Them, and Their Use as Protecting Agents Against Uv Radiation” (ISDIN, S.A., priority 2005, published 2008).

Data set [1] can be described thus: UV absorption (UV λmax and εmax) in solution. In kind it is physicochemical. From the text: There follow some examples where the UV λmax and εmax have been measured according to general methods known for the person skilled in the art by way of non-restrictive illustration of the present invention.

Where only a bound is given, the exact number is not on record here.

One may read the melting point as the temperature of the solid-liquid transition.

`CC1CC(OC(=O)c2ccc(NC3=NC4=NC(Nc5ccc(C(=O)OC6CC(C)CC(C)(C)C6)cc5)=NC5=NC(Nc6ccc(C(=O)OC7CC(C)CC(C)(C)C7)cc6)=NC(=N3)N45)cc2)CC(C)(C)C1` (stereo not drawn) [Example 31, 2,5,8-tris-(4-((3,3,5-trimethylcyclohexyloxy)carbonyl)phenylamino)-1,3,4,6,7,9,9b-heptaazaphenalene] had a melting point of more than 275 °C. Moreover, in data set [1] (DMSO), the “UV λmax” value was 329 nm and the εmax amounted to 143000 M⁻¹ cm⁻¹.
As for `CCCCC(CC)COC(=O)c1ccc(NC2=NC3=NC(Nc4ccc(C(=O)OCC(CC)CCCC)cc4)=NC4=NC(Nc5ccc(C(=O)OCC(CC)CCCC)cc5)=NC(=N2)N34)cc1` (stereo not drawn) [Example 2, 2,5,8-tris-(4-(2-ethylhexyloxycarbonyl)phenylamino)-1,3,4,6,7,9,9b-heptaazaphenalene], the melting point was 183 to 186 °C. Further, in data set [1] (CHCl3), the “UV λmax” value turned out to be 326 nm and the εmax is 95000 M⁻¹ cm⁻¹.
Compound `CCCCCCCCCCCCCCCCOC(=O)c1ccc(NC2=NC3=NC(Nc4ccc(C(=O)OCCCCCCCCCCCCCCCC)cc4)=NC4=NC(Nc5ccc(C(=O)OCCCCCCCCCCCCCCCC)cc5)=NC(=N2)N34)cc1` [Example 42, 2,5,8-tris-(4-(hexadecyloxycarbonyl)phenylamino)-1,3,4,6,7,9,9b-heptaazaphenalene] came in with a melting point of 252 to 255 °C. Further, in data set [1] (DMSO), the “UV λmax” value worked out at 324 nm and the εmax stood at 125000 M⁻¹ cm⁻¹.
The corresponding values for `CCOC(=O)/C=C/c1ccc(NC2=NC3=NC(Nc4ccc(/C=C/C(=O)OCC)cc4)=NC4=NC(Nc5ccc(/C=C/C(=O)OCC)cc5)=NC(=N2)N34)cc1` [Example 22, 2,5,8-tris-(4-((E)-3-ethoxy-3-oxoprop-1-enyl)phenylamino)-1,3,4,6,7,9,9b-heptaazaphenalene] are more than 275 °C, 359 nm and 135900 M⁻¹ cm⁻¹.
The compound `O=C(c1ccccc1)c1ccc(NC2=NC3=NC(Nc4ccc(C(=O)c5ccccc5)cc4)=NC4=NC(Nc5ccc(C(=O)c6ccccc6)cc5)=NC(=N2)N34)cc1` [Example 14, 2,5,8-tris-(4-benzoylphenylamino)-1,3,4,6,7,9,9b-heptaazaphenalene] came in with a melting point of more than 270 °C. For the same compound, in data set [1] (DMSO), the “UV λmax” value worked out at 339 nm and the εmax turned out to be 112000 M⁻¹ cm⁻¹.
Taken in the same sequence, the figures for `CCCCC(CC)COC(=O)/C=C/c1ccc(NC2=NC3=NC(Nc4ccc(/C=C/C(=O)OCC(CC)CCCC)cc4)=NC4=NC(Nc5ccc(/C=C/C(=O)OCC(CC)CCCC)cc5)=NC(=N2)N34)cc1` (stereo not drawn) [Example 32, 2,5,8-tris-(4-((E)-3-(2-ethylhexyloxy)-3-oxoprop-1-enyl)phenylamino)-1,3,4,6,7,9,9b-heptaazaphenalene] were 213 to 216 °C, 358 nm and 154000 M⁻¹ cm⁻¹.
The corresponding values for `c1cnn(-c2ccc(NC3=NC4=NC(Nc5ccc(-n6cccn6)cc5)=NC5=NC(Nc6ccc(-n7cccn7)cc6)=NC(=N3)N45)cc2)c1` [Example 15, 2,5,8-tris-(4-(1H-pyrazol-1-yl)phenylamino)-1,3,4,6,7,9,9b-heptaazaphenalene] are 224 to 227 °C, 330 nm and 99000 M⁻¹ cm⁻¹.
Compound `CCCCOC(=O)c1ccc(NC2=NC3=NC(Nc4ccc(C(=O)OCCCC)cc4)=NC4=NC(Nc5ccc(C(=O)OCCCC)cc5)=NC(=N2)N34)cc1` [Example 1, 2,5,8-tris-(4-(butoxycarbonyl)phenylamino)-1,3,4,6,7,9,9b-heptaazaphenalene] registered a melting point of 289 to 290 °C. In data set [1] (CHCl3—EtOH), the “UV λmax” value was determined as 325 nm and the εmax turned out to be 100000 M⁻¹ cm⁻¹.
The compound `COC(=O)c1ccc(NC2=NC3=NC(Nc4ccc(C(=O)OC)cc4)=NC4=NC(Nc5ccc(C(=O)OC)cc5)=NC(=N2)N34)cc1` [Example 24, 2,5,8-tris-(4-(methoxycarbonyl)phenylamino)-1,3,4,6,7,9,9b-heptaazaphenalene] yielded a melting point of 288 to 291 °C. Further, in data set [1] (DMSO), the “UV λmax” value is on record as 329 nm and the εmax is 116000 M⁻¹ cm⁻¹.
Taken in the same sequence, the figures for `C(=C\c1ccc(NC2=NC3=NC(Nc4ccc(/C=C/c5ccccc5)cc4)=NC4=NC(Nc5ccc(/C=C/c6ccccc6)cc5)=NC(=N2)N34)cc1)/c1ccccc1` [Example 28, 2,5,8-tris-((4-(E)-styrylphenyl)amino)-1,3,4,6,7,9,9b-heptaazaphenalene] were more than 270 °C, 367 nm and 163000 M⁻¹ cm⁻¹.
Compound `CC(C)[C@@H]1CC[C@@H](C)C[C@H]1OC(=O)c1ccc(NC2=NC3=NC(Nc4ccc(C(=O)O[C@@H]5C[C@H](C)CC[C@H]5C(C)C)cc4)=NC4=NC(Nc5ccc(C(=O)O[C@@H]6C[C@H](C)CC[C@H]6C(C)C)cc5)=NC(=N2)N34)cc1` [Example 30, 2,5,8-tris-(4-(L-menthylcarbonyl)phenylamino)-1,3,4,6,7,9,9b-heptaazaphenalene] gave a melting point of 202 to 206 °C. In data set [1] (DMSO), the “UV λmax” value was 326 nm and the εmax was determined as 118000 M⁻¹ cm⁻¹.
